According to US11384062B2 (CombiPhos Catalysts, Inc., priority 2017, dated 2022):

Legend:
IGROV1 = conditions: 10 μM single dose; Ovarian Cancer IGROV1
From the text: (§1) The test compounds were screened for anticancer activity at the Development Therapeutic Program (DTP), National Cancer Institute (NCI), USA, against a full NCI 59 cell line panel (six cell lines of leukemia, nine cell lines of lung cancer, seven cell lines of colon cancer, six cell lines of CNS cancer, nine cell lines of melanoma, seven cell lines of ovarian cancer, seven cell lines of renal cancer, two cell lines of prostate cancer, and six cell lines of breast cancer) representing nine human systems in total as leukemia, melanoma, and cancers of the lungs, colon, brain, breast, ovary, kidney, and prostate, according to the applied protocol. A primary in vitro one dose anticancer assay was performed at a single dose (10 μM) against the full NCI 59 cell line panel. The one dose data was reported as a mean graph of the percent growth of treated cells. The number reported for the single dose assay was growth relative to the no drug control and relative to the initial number of cells at time 0. […] A value of −40 means 40% lethality. A value of −100 means all cells are dead.

MALME-3M = conditions: 10 μM single dose; Melanoma MALME-3M
From the text: as §1

A549/ATCC = conditions: 10 μM single dose; Non-Small Cell Lung Cancer A549/ATCC
From the text: as §1

DU-145 = conditions: 10 μM single dose; Prostate Cancer DU-145
From the text: as §1

UO-31 = conditions: 10 μM single dose; Renal Cancer UO-31
From the text: as §1

SK-MEL-28 = conditions: 10 μM single dose; Melanoma SK-MEL-28
From the text: as §1

MDA-MB-231/ATCC = conditions: 10 μM single dose; Breast Cancer MDA-MB-231/ATCC
From the text: as §1

RXF 393 = conditions: 10 μM single dose; Renal Cancer RXF 393
From the text: as §1

MOLT-4 = conditions: 10 μM single dose; Leukemia MOLT-4
From the text: as §1

K-562 = conditions: 10 μM single dose; Leukemia K-562
From the text: as §1

SNB-19 = conditions: 10 μM single dose; CNS Cancer SNB-19
From the text: as §1

SR = conditions: 10 μM single dose; Leukemia SR
From the text: as §1

UACC-62 = conditions: 10 μM single dose; Melanoma UACC-62
From the text: as §1

OVCAR-3 = conditions: 10 μM single dose; Ovarian Cancer OVCAR-3
From the text: as §1

KM12 = conditions: 10 μM single dose; Colon Cancer KM12
From the text: as §1

HS 578T = conditions: 10 μM single dose; Breast Cancer HS 578T
From the text: as §1

RPMI-8226 = conditions: 10 μM single dose; Leukemia RPMI-8226
From the text: as §1

M14 = conditions: 10 μM single dose; Melanoma M14
From the text: as §1

SF-295 = conditions: 10 μM single dose; CNS Cancer SF-295
From the text: as §1

NCI-H23 = conditions: 10 μM single dose; Non-Small Cell Lung Cancer NCI-H23
From the text: as §1

HOP-92 = conditions: 10 μM single dose; Non-Small Cell Lung Cancer HOP-92
From the text: as §1

OVCAR-5 = conditions: 10 μM single dose; Ovarian Cancer OVCAR-5
From the text: as §1

MDA-MB-468 = conditions: 10 μM single dose; Breast Cancer MDA-MB-468
From the text: as §1

SW-620 = conditions: 10 μM single dose; Colon Cancer SW-620
From the text: as §1

SK-OV-3 = conditions: 10 μM single dose; Ovarian Cancer SK-OV-3
From the text: as §1

LOX IMVI = conditions: 10 μM single dose; Melanoma LOX IMVI
From the text: as §1

NCI-H460 = conditions: 10 μM single dose; Non-Small Cell Lung Cancer NCI-H460
From the text: as §1

MCF7 = conditions: 10 μM single dose; Breast Cancer MCF7
From the text: as §1

SF-539 = conditions: 10 μM single dose; CNS Cancer SF-539
From the text: as §1

SF-268 = conditions: 10 μM single dose; CNS Cancer SF-268
From the text: as §1

ACHN = conditions: 10 μM single dose; Renal Cancer ACHN
From the text: as §1

A498 = conditions: 10 μM single dose; Renal Cancer A498
From the text: as §1

EKVX = conditions: 10 μM single dose; Non-Small Cell Lung Cancer EKVX
From the text: as §1

HCC-2998 = conditions: 10 μM single dose; Colon Cancer HCC-2998
From the text: as §1

786-0 = conditions: 10 μM single dose; Renal Cancer 786-0
From the text: as §1

SN12C = conditions: 10 μM single dose; Renal Cancer SN12C
From the text: as §1

HL-60(TB) = conditions: 10 μM single dose; Leukemia HL-60(TB)

SMILES | Growth Percentage (IGROV1) [%] | Growth Percentage (MALME-3M) [%] | Growth Percentage (A549/ATCC) [%] | Growth Percentage (DU-145) [%] | Growth Percentage (UO-31) [%] | Growth Percentage (SK-MEL-28) [%] | Growth Percentage (MDA-MB-231/ATCC) [%] | Growth Percentage (RXF 393) [%] | Growth Percentage (MOLT-4) [%] | Growth Percentage (K-562) [%] | Growth Percentage (SNB-19) [%] | Growth Percentage (SR) [%] | Growth Percentage (UACC-62) [%] | Growth Percentage (OVCAR-3) [%] | Growth Percentage (KM12) [%] | Growth Percentage (HS 578T) [%] | Growth Percentage (RPMI-8226) [%] | Growth Percentage (M14) [%] | Growth Percentage (SF-295) [%] | Growth Percentage (NCI-H23) [%] | further results
[2H]C1([2H])NC([2H])([2H])C([2H])(c2ccc(-n3cc4cccc(C(N)=O)c4n3)cc2)C([2H])([2H])C1([2H])[2H] (racemic) [Example 3, 2-(4-(piperidin-3-yl-2,2,3,4,4,5,5,6,6-d9)phenyl)-2H-indazole-7-carboxamide] | 83.23 | 91.23 | 67.74 | 97.89 | 80.19 | 107.36 | 83.62 | 111.56 | 86.53 | 89.73 | 91.61 | 59.44 | 84.84 | 103.07 | 99.34 | 86.68 | 87.86 | 98.03 | 96.74 | 91.99 | Growth Percentage (HOP-92): 98.72%; Growth Percentage (OVCAR-5): 100.56%; Growth Percentage (MDA-MB-468): 109.78%; Growth Percentage (SW-620): 84.69%; Growth Percentage (SK-OV-3): 96.60%; Growth Percentage (LOX IMVI): 76.95%; Growth Percentage (NCI-H460): 86.91%; Growth Percentage (MCF7): 75.22%; Growth Percentage (SF-539): 96.82%; Growth Percentage (SF-268): 88.94%; Growth Percentage (ACHN): 77.21%; Growth Percentage (A498): 90.94%; Growth Percentage (EKVX): 100.49%; Growth Percentage (HCC-2998): 88.49%; Growth Percentage (786-0): 103.31%; Growth Percentage (SN12C): 93.25%; Growth Percentage (HL-60(TB)): 89.31%
[2H]c1c([2H])c(-n2nc3c(C(N)=O)cccc3c2[2H])c([2H])c([2H])c1C1CCCNC1 (racemic) [Example 11, 2-(4-(piperidin-3-yl)phenyl-2,3,5,6-d4)-2H-indazole-3-d-7-carboxamide] | 74.29 | 92.14 | 70.16 | 87.51 | 79.89 | 101.33 | 76.99 | 107.27 | 71.06 | 87.94 | 85.34 | 37.42 | 76.75 | 97.70 | 83.99 | 81.82 | 78.32 | 90.64 | 90.94 | 82.01 | Growth Percentage (HOP-92): 79.03%; Growth Percentage (OVCAR-5): 89.69%; Growth Percentage (MDA-MB-468): 87.13%; Growth Percentage (SW-620): 72.01%; Growth Percentage (SK-OV-3): 94.12%; Growth Percentage (LOX IMVI): 71.49%; Growth Percentage (NCI-H460): 80.76%; Growth Percentage (MCF7): 69.21%; Growth Percentage (SF-539): 77.48%; Growth Percentage (SF-268): 82.89%; Growth Percentage (ACHN): 72.39%; Growth Percentage (A498): 83.22%; Growth Percentage (EKVX): 91.65%; Growth Percentage (HCC-2998): 80.10%; Growth Percentage (786-0): 97.43%; Growth Percentage (SN12C): 81.90%; Growth Percentage (HL-60(TB)): 69.13%
[2H]c1c([2H])c(C2([2H])C([2H])NC([2H])C([2H])C2[2H])c([2H])c([2H])c1-n1cc2cccc(C(N)=O)c2n1 (stereo not drawn) [Example 4, 2-(4-(piperidin-3-yl-2,3,4,5,6-d5)phenyl-2,3,5,6-d4)-2H-indazole-7-carboxamide] | 73.75 | 79.53 | 67.08 | 89.54 | 75.43 | 98.37 | 80.47 | 102.74 | 78.10 | 77.76 | 88.53 | 47.47 | 85.29 | 107.53 | 87.65 | 86.01 | 90.85 | 84.68 | 85.63 | 84.26 | Growth Percentage (HOP-92): 90.59%; Growth Percentage (OVCAR-5): 89.23%; Growth Percentage (MDA-MB-468): 86.59%; Growth Percentage (SW-620): 72.23%; Growth Percentage (SK-OV-3): 90.49%; Growth Percentage (LOX IMVI): 70.64%; Growth Percentage (NCI-H460): 76.94%; Growth Percentage (MCF7): 64.30%; Growth Percentage (SF-539): 82.30%; Growth Percentage (SF-268): 89.52%; Growth Percentage (ACHN): 72.83%; Growth Percentage (A498): 89.03%; Growth Percentage (EKVX): 88.21%; Growth Percentage (HCC-2998): 83.97%; Growth Percentage (786-0): 92.79%; Growth Percentage (SN12C): 89.59%; Growth Percentage (HL-60(TB)): 77.68%
